Columns and labels:
Type in all cases: cell-based
[1] = system: Streptococcus mutans UA159; assay: Growth inhibition assay, S. mutans (colony counts normalized to pH-matched BHI); settings: 1% (w/v) or 10% (w/v) sugar alcohol alone, pH 6.5, 7.5 or 8.5
[2] = system: Solobacterium moorei DSM 22971; assay: Growth inhibition assay, S. moorei (colony counts normalized to pH-matched Schaedler's broth)
Procedure: Solobacterium moorei DSM 22971 and Porphyromonas gingivalis ATCC 33277 were grown in Schaedler's broth (Himedia) or Brucella blood agar with hemin and vitamin K (Hardy Diagnostics) under anaerobic conditions at 37° C. Anaerobic conditions were maintained using the Anaerogen atmosphere generation system (Oxoid). Streptococcus mutans UA159 were grown in Brain Heart Infusion (BHI; Hardy Diagnostics) under 5% CO2 at 37° C. Various concentrations of xylitol (Acros Organics), erythritol (Acros Organics) and/or polyphenon 60 (Sigma) were dissolved in Schaedler's broth or BHI broth. […] The mixtures were pH adjusted using either hydrochloric acid or sodium hydroxide to a final pH of 6.5±0.1, 7.5±0.1 or 8.5±0.1. All test products were filter-sterilized after pH adjustment. […] After 48 h of incubation, various dilutions of the cells were spotted into Brucella blood agar with hem in and vitamin K, and incubated for 48 h for S. moorei, and for 72 h for P. gingivalis. Cell counts were normalized against growth in Schaedler's broth adjusted to their respective testing pH. […] The percent inhibition was measured by normalizing the results against S. moorei grown in media with the corresponding pH adjustment. […] The percent survival was measured by normalizing the results against S. moorei grown in media with the corresponding pH adjustment. […] The percent inhibition was measured by normalizing the results against S. moorei grown in media with the corresponding pH adjustment. An upper limit of 0.1 mg/mL polyphenon 60 was used in order to be able to assess the pH effects.

[3] = system: Porphyromonas gingivalis ATCC 33277; assay: Growth inhibition assay, P. gingivalis (colony counts normalized to pH-matched Schaedler's broth)
Procedure: Solobacterium moorei DSM 22971 and Porphyromonas gingivalis ATCC 33277 were grown in Schaedler's broth (Himedia) or Brucella blood agar with hemin and vitamin K (Hardy Diagnostics) under anaerobic conditions at 37° C. Anaerobic conditions were maintained using the Anaerogen atmosphere generation system (Oxoid). Streptococcus mutans UA159 were grown in Brain Heart Infusion (BHI; Hardy Diagnostics) under 5% CO2 at 37° C. Various concentrations of xylitol (Acros Organics), erythritol (Acros Organics) and/or polyphenon 60 (Sigma) were dissolved in Schaedler's broth or BHI broth. […] The mixtures were pH adjusted using either hydrochloric acid or sodium hydroxide to a final pH of 6.5±0.1, 7.5±0.1 or 8.5±0.1. All test products were filter-sterilized after pH adjustment. […] After 48 h of incubation, various dilutions of the cells were spotted into Brucella blood agar with hem in and vitamin K, and incubated for 48 h for S. moorei, and for 72 h for P. gingivalis. Cell counts were normalized against growth in Schaedler's broth adjusted to their respective testing pH. […] The percent inhibition was measured by normalizing the results against P. gingivalis grown in media with the corresponding pH adjustment. […] The percent inhibition was measured by normalizing the results against P. gingivalis grown in media with the corresponding pH adjustment.

[4] = 10% sugar alcohol alone, pH 6.5
[5] = 10% sugar alcohol alone, pH 7.5
[6] = 10% sugar alcohol alone, pH 8.5

SMILES	inhibitory activity on growth of S. mutans [1]	S. moorei survival [2, 4]	S. moorei survival [2, 5]	S. moorei survival [2, 6]	inhibition of S. moorei growth ([2]; on its own at varying concentrations, any pH)	Survival of P. gingivalis ([3]; 1% sugar alcohol alone, pH 6.5)	Survival of P. gingivalis ([3]; 1% sugar alcohol alone, pH 7.5)	Survival of P. gingivalis [3, 4]	Survival of P. gingivalis [3, 5]	Survival of P. gingivalis [3, 6]	S. moorei survival ([2]; 1% sugar alcohol alone, pH 6.5)	S. moorei survival ([2]; 1% sugar alcohol alone, pH 7.5)	S. moorei survival ([2]; 1% sugar alcohol alone, pH 8.5)	Survival of P. gingivalis ([3]; 1% sugar alcohol alone, pH 8.5)
OC[C@@H](O)[C@@H](O)CO [erythritol]	inhibit growth	140.4%	156.9%	162.0%	did not inhibit	92.1%	75.4%	41.1%	19.9%	13.6%				
OC[C@@H](O)[C@H](O)[C@@H](O)CO [xylitol]	had inhibitory activity	52.6%	53.6%	26.8%		69.8%	63.2%	14.3%	8.9%	7.4%	52.0%	53.3%	17.3%	60.0%

— patent publication US11382850B2, “Compositions and methods for inhibiting growth of caries-, gingivitis- and halitosis-causing bacteria” (DoseBiome Inc., priority 2019, dated 2022)
